# In ChEMBL document CHEMBL1128057, “Aryl-fused sphingolipids as novel PKC inhibitors with topical antiinflammatory activity” (Bioorg Med Chem Lett, 1995):
# Legend:
# Protein kinase C (PKC) [1] = test: Inhibitory concentration required against Protein kinase C (isolated from rat brain) in PKC assay performed with 4 ug phosphatidyl serine:diacylglycerol (2:1)
# Protein kinase C (PKC) [2] = test: Inhibition of Protein kinase C of rat brain using phosphatidyl serine: di-acyl glycerol (2:1)
# Mus musculus = species: Mus musculus; test: Anti-inflammatory activity on the mice ears using antiinflammatory assay (TPAEE); type: functional
IC50 (Protein kinase C (PKC) [1]),IC50 (Protein kinase C (PKC) [2]),SMILES,ED50 (Mus musculus)
4.7 µM,,CCCCCCCCCC#Cc1ccc([C@@H](O)[C@@H](N)CO)s1,
43.9 µM,,CCCCCCCCCCc1cc([C@@H](O)[C@@H](N)CO)on1,
36 µM,,N[C@@H](CO)[C@H](O)c1ccc(C#CCCCCc2ccccc2)s1,
,15.2 µM,CCCCCCCCCCC#Cc1csc([C@@H](O)[C@@H](N)CO)n1,
10.8 µM,23.7 µM,CCCCCCCCCCC#Cc1csc([C@@H](O)[C@@H](N)CO)c1,0.23 mg ear-1
10 µM,,CCCCCCCCCc1ccc([C@@H](O)[C@@H](N)CO)s1,
15.9 µM,,N[C@@H](CO)[C@H](O)c1cccc(C#CCCCCCc2ccccc2)n1,
9.7 µM,,CCCCCCCCCC#Cc1cccc([C@@H](O)[C@@H](N)CO)c1,
30.5 µM,,CCCCCCCCCCc1cccc([C@@H](O)[C@@H](N)CO)n1,
4.5 µM,,CCCCCCCCCCCCCCCCc1cccc([C@@H](O)[C@@H](N)CO)n1,
19.9 µM,,CCCCCCCC#Cc1ccc([C@@H](O)[C@@H](N)CO)s1,
14 µM,,CCCCCCCCCCCCc1ccc([C@@H](O)[C@@H](N)CO)s1,
10.9 µM,,CCCCCCCCCCCCc1cccc([C@@H](O)[C@@H](N)CO)n1,
> 100 µM,,CCCCCCCCc1cccc([C@@H](O)[C@@H](N)CO)n1,
3.5 µM,,CCCCCCCCCCCC#Cc1ccc([C@@H](O)[C@@H](N)CO)s1,
,34.5 µM,CCCCCCCCCCC#Cc1cc([C@@H](O)[C@@H](N)CO)cs1,
2.9 µM,26.2 µM,CCCCCCCCCCC#Cc1ccc([C@@H](O)[C@@H](N)CO)s1,0.24 mg ear-1
,22.4 µM,CCCCCCCCCCCC(=O)c1ccc([C@@H](O)[C@@H](N)CO)s1,
10 µM,,CCCCCCCCCCCc1cccc([C@@H](O)[C@@H](N)CO)n1,
10 µM,,CCCCCCCCCC#Cc1cccc([C@@H](O)[C@@H](N)CO)n1,
13.3 µM,,CCCCCCCCC#Cc1cccc([C@@H](O)[C@@H](N)CO)n1,
3.7 µM,17.3 µM,CCCCCCCCCCCCc1cccc([C@@H](O)[C@@H](N)CO)c1,
,22.4 µM,CCCCCCCCCCCC(=O)c1csc([C@@H](O)[C@@H](N)CO)c1,
,24.1 µM,CCCCCCCCCCCOc1cccc([C@@H](O)[C@@H](N)CO)c1,
,20.7 µM,CCCCCCCCCCCC(=O)c1cccc([C@@H](O)[C@@H](N)CO)c1,
2.7 µM,22.2 µM,CCCCCCCCCCC#Cc1cccc([C@@H](O)[C@@H](N)CO)c1,0.34 mg ear-1
,13.3 µM,CCCCCCCCCCCCc1csc([C@@H](O)[C@@H](N)CO)c1,
9.1 µM,,CCCCCCCCCCCCc1cc([C@@H](O)[C@@H](N)CO)on1,
5 µM,,CCCCCCCCCC/C=C/c1csc([C@@H](O)[C@@H](N)CO)c1,
6.7 µM,23.4 µM,CCCCCCCCCCCCC/C=C/[C@@H](O)[C@@H](N)CO [SPHINGOSINE],0.31 mg ear-1
